Converted amounts (≈) assume the structure as drawn. The source made the active and inactive calls. The rule behind the calls is not given here.
Columns and labels:
Cell membrane [1] = assay: Disruption of cell membrane integrity in methicillin-resistant Staphylococcus aureus ATCC 43300 assessed as appearance of blue fluorescence by DAPI/PI staining based microscopic analysis; format: cell membranes
Staphylococcus aureus [2] = assay: (§1) Antibacterial activity against methicillin-resistant Staphylococcus aureus ATCC 43300 infected in sepsis mouse model assessed as reduction in number of surviving bacterial colonies in blood at 5 mg/kg pre-infected with bacteria for 1 hrs followed by continuous compound administration at 12 hrs intervals for 2 days relative to control; format: functional; settings: time 2 day
Pseudomonas aeruginosa = assay: Antibacterial activity against penicillin-susceptible Pseudomonas aeruginosa ATCC 27853; format: functional
Cell membrane [3] = assay: Induction of cytoplasmic membrane depolarization in methicillin-resistant Staphylococcus aureus ATCC 43300 assessed as fold increase in fluorescence intensity at 16 microg/ml measured within 20 min by DiSC3(5) dye-based fluorescence assay; format: cell membranes; settings: dose 16.0 µg/ml
Cell membrane [4] = assay: Induction of cytoplasmic membrane permeabilization in methicillin-resistant Staphylococcus aureus ATCC 43300 assessed as increase fluorescence intensity at 16 microg/ml by PI staining based fluorescence analysis; format: cell membranes; settings: dose 16.0 µg/ml
Staphylococcus aureus [5] = assay: Bactericidal activity against methicillin-resistant Staphylococcus aureus ATCC 43300 in presence of 50% human serum by Mueller Hinton broth based assay; format: functional
Staphylococcus aureus [6] = assay: (§2) Antibacterial activity against methicillin-resistant Staphylococcus aureus ATCC 43300 infected in sepsis mouse model assessed as decrease in TNF-alpha level in blood at 5 to 10 mg/kg pre-infected with bacteria for 1 hrs followed by continuous compound administration at 12 hrs intervals for 2 days; format: functional, organism-based; settings: dose 5-10 mg/kg, time 2.0 day
Staphylococcus aureus [7] = assay: Drug resistance, ratio of MIC for methicillin-resistant Staphylococcus aureus ATCC 43300 after 20 passages to MIC for methicillin-resistant Staphylococcus aureus ATCC 43300 during first exposure; format: functional
Klebsiella pneumoniae = assay: Antibacterial activity against Klebsiella pneumoniae ATCC 10031; format: functional
Cell membrane [8] = assay: Induction of cytoplasmic membrane depolarization in methicillin-resistant Staphylococcus aureus ATCC 43300 assessed as increase in fluorescence intensity at 2 microg/ml by DiSC3(5) dye-based fluorescence assay; format: cell membranes; settings: dose 2.0 µg/ml
Staphylococcus aureus [9] = assay: as §1, with “spleen” for “blood”; format: functional; settings: time 2 day
Cell membrane [10] = assay: Disruption of cell membrane in methicilin-resistant Staphylococcus aureus ATCC 43300 assessed as appearance of collapsed cell membrane by scanning electron microscopic analysis; format: cell membranes
Cell membrane [11] = assay: Induction of cell membrane disruption in methicillin-resistant Staphylococcus aureus ATCC 43300 assessed as increase in protein leakage; format: cell membranes
[12] = system: Staphylococcus epidermidis; assay: Antibacterial activity erythromycin-susceptible Staphylococcus epidermidis ATCC 12228; format: functional
Staphylococcus aureus [13] = assay: Selectivity ratio of MBC for bactericidal activity against methicillin-resistant Staphylococcus aureus ATCC 43300 in presence of 50% human blood to MBC for bactericidal activity against methicillin-resistant Staphylococcus aureus ATCC 43300; format: functional
Staphylococcus aureus [14] = assay: as §2, with “reduction” for “decrease”, “bacterial load” for “TNF-alpha level”, “kidney” for “blood”, “at” for “at 5 to”, “days (reference value: 6.75 log10CFU/g)” for “days”; format: functional; settings: time 2 day
Staphylococcus aureus [15] = assay: Bacteriostatic activity against methicillin-resistant Staphylococcus aureus ATCC 43300 assessed as inhibition of bacterial growth at 1 times of MIC measured after 24 hrs by time-kill kinetic analysis; format: functional, organism-based
Staphylococcus aureus [16] = assay: Disruption of preformed biofilm in methicillin-resistant Staphylococcus aureus ATCC 43300 assessed as eradication of biofilm by crystal violet staining method; format: functional, organism-based; settings: dose 2-64 µg/ml
Staphylococcus aureus [17] = assay: Bactericidal activity against methicillin-resistant Staphylococcus aureus ATCC 43300 in presence of 50% human plasma by Mueller Hinton broth based assay; format: functional
Staphylococcus aureus [18] = assay: Antibacterial activity against methicillin-resistant Staphylococcus aureus ATCC 43300 at 1/2 times of MIC measured after 20 passage; format: functional, organism-based
Staphylococcus aureus [19] = assay: Antibacterial activity against methicillin-resistant Staphylococcus aureus ATCC 43300 infected in sepsis mouse model assessed as decrease in IL-6 level in blood at 5 to 10 mg/kg pre-infected with bacteria for 1 hrs followed by continuous compound administration at 12 hrs intervals for 2 days; format: functional, organism-based; settings: dose 5-10 mg/kg, time 2.0 day
Staphylococcus aureus [20] = assay: Antibacterial activity against penicillin-resistant Staphylococcus aureus ATCC 31007; format: functional
Staphylococcus aureus [21] = assay: as §1, with “10” for “5”; format: functional; settings: time 2 day
Cell membrane [22] = assay: Disruption of cell membrane in methicilin-resistant Staphylococcus aureus ATCC 43300 assessed as appearance of wrinkled cell membrane by scanning electron microscopic analysis; format: cell membranes
Staphylococcus aureus [23] = assay: as §1, with “in” for “in number of surviving”, “load” for “colonies”, “(reference value: 3.69 log10CFU/ml)” for “relative to control”; format: functional; settings: time 2 day
Staphylococcus aureus [24] = assay: as §2, with “reduction” for “decrease”, “pathological damages” for “TNF-alpha level”, “liver” for “blood”, “days by H and E staining based analysis” for “days”; format: functional, organism-based; settings: dose 5-10 mg/kg, time 2.0 day
Staphylococcus aureus [25] = assay: Bactericidal activity against methicillin-resistant Staphylococcus aureus ATCC 43300 by Mueller Hinton broth based assay; format: functional; settings: time <= 6 hrs
Staphylococcus aureus [26] = assay: as §2, with “reduction” for “decrease”, “pathological damages” for “TNF-alpha level”, “kidney” for “blood”, “days by H and E staining based analysis” for “days”; format: functional, organism-based; settings: dose 5-10 mg/kg, time 2.0 day

Q: Which Activity (Cell membrane [1]) does the source give for `CCCCN(CCCC)CCCNCCCOc1c(C(C)=O)ccc2c1C=CC(C)(CCC=C(C)C)O2` (stereo not drawn) here?
A: Active

Q: What about the Activity (Staphylococcus aureus [2]) of the same compound?
A: 91.8%

Q: And the MIC (Pseudomonas aeruginosa)?
A: 32 µg/mL (≈ 62.4 µM)

Q: What about the fold change (FC) (Cell membrane [3]) of the same compound?
A: 15

Q: And the Activity (Cell membrane [4])?
A: Active

Q: What about the MBC (Staphylococcus aureus [5]) of the same compound?
A: 16 µg/mL

Q: What about the Activity (Staphylococcus aureus [6]) of the same compound?
A: Active

Q: And the Ratio (Staphylococcus aureus [7])?
A: 2

Q: What about the MIC (Klebsiella pneumoniae) of the same compound?
A: 4 µg/mL (≈ 7.8 µM)

Q: And the Activity (Cell membrane [8])?
A: inactive

Q: What about the Activity (Staphylococcus aureus [9]) of the same compound?
A: 99%

Q: What about the Activity (Cell membrane [10]) of the same compound?
A: Active

Q: What about the Activity (Cell membrane [11]) of the same compound?
A: Active

Q: What about the MIC [12] of the same compound?
A: 1 µg/mL (≈ 1.95 µM)

Q: What about the selectivity ratio (Staphylococcus aureus [13]) of the same compound?
A: 2

Q: What about the Activity (Staphylococcus aureus [14]) of the same compound?
A: 2.84 log10CFU/g

Q: What about the Activity (Staphylococcus aureus [15]) of the same compound?
A: Active

Q: And the Activity (Staphylococcus aureus [16])?
A: Dose-Dependent Effect

Q: And the MBC (Staphylococcus aureus [17])?
A: 16 µg/mL

Q: And the Activity (Staphylococcus aureus [18])?
A: Active

Q: What about the Activity (Staphylococcus aureus [19]) of the same compound?
A: Active

Q: What about the MIC (Staphylococcus aureus [20]) of the same compound?
A: 4 µg/mL (≈ 7.8 µM)

Q: What about the Activity (Staphylococcus aureus [21]) of the same compound?
A: 95.9%

Q: And the Activity (Cell membrane [22])?
A: Active

Q: And the Activity (Staphylococcus aureus [23])?
A: 1.1 log10CFU/ml

Q: And the Activity (Staphylococcus aureus [24])?
A: Active

Q: What about the MBC (Staphylococcus aureus [25]) of the same compound?
A: 8 µg/mL (≈ 15.6 µM)

Q: And the Activity (Staphylococcus aureus [26])?
A: Active

Source: ChEMBL document CHEMBL5614413, “Design, synthesis and biological evaluation of amphiphilic benzopyran derivatives as potent antibacterial agents against multidrug-resistant bacteria” (Eur J Med Chem, 2024)
